solubility, half-life and IC50 data for one compound are collected here from patent US8268859B2, “Glucocorticoid mimetics, methods of making them, pharmaceutical compositions and uses thereof” (Boehringer Ingelheim International GmbH, priority 2008, dated 2012).

A short description of data set [1]: High throughput solubility. The class given is physicochemical. The conditions noted are these: aqueous buffer (pION system solution), pH 7, aqueous buffer, kinetic from dmso stock.
The nature of data set [2]: Human microsomal stability. It is filed as in vitro ADME. The conditions noted are these: pH 7.4; human liver microsomes; read-out: human liver microsome half life. On the technique in general: Liver microsomes are a subcellular fraction often used to study metabolism.
In data set [3] the target is T1, Potassium Channel HERG (Homo sapiens, UniProt Q12809).
T1 construct: expressed in transfected cells; host or cells: HEK-293 cells
T1 sequence (Q12809 whole entry): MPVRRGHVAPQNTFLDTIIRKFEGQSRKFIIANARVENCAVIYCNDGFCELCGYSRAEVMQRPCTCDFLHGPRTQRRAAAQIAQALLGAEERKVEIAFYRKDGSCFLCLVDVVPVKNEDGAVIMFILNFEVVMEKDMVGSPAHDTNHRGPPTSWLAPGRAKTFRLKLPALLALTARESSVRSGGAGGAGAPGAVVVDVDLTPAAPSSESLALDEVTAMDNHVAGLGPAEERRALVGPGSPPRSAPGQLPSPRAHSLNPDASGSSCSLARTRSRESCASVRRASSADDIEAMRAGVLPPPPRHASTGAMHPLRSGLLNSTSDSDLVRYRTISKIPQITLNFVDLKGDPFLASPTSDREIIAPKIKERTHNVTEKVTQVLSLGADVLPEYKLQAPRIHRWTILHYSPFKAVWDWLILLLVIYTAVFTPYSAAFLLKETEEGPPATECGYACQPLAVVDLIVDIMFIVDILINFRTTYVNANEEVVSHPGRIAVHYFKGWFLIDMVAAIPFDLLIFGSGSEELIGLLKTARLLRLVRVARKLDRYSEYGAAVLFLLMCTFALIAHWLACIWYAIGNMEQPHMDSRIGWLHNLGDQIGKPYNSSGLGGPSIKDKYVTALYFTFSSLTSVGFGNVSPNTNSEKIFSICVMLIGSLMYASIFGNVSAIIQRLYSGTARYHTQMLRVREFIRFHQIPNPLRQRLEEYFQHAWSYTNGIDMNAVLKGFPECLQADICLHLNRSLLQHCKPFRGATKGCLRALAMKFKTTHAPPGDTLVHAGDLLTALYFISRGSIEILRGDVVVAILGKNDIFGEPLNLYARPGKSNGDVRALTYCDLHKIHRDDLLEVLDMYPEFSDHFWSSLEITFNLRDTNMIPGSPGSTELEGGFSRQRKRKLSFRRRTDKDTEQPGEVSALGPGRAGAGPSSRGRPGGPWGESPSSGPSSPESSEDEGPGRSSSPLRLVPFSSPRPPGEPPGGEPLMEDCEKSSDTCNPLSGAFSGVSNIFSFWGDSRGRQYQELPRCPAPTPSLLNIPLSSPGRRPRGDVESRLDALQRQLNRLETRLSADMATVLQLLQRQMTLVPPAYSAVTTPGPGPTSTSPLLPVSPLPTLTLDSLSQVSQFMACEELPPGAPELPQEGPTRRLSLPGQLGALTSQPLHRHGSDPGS
Briefly: hERG assays (either hERG binding assay or hERG patch clamp assay). The class given is cell-based. The following applies: Table 3, not specified per compound.

By solubility is commonly meant the dissolved amount per volume that the medium holds. In general, half-life refers to the time needed for the level to fall by half in the phase considered. The term IC50 denotes the concentration that gives 50% inhibition. Higher therefore signals a need for much substance. With `CC(C)(CC(O)(Cc1cc2cc(S(C)(=O)=O)ncc2[nH]1)C(F)(F)F)c1ccc(F)cc1C(N)=O` (stereo not drawn), the solubility in data set [1] is greater than 0.1 mg/mL. Moreover, in data set [2], the half-life stood at 45 min. This compound had an IC50 in data set [3] greater than 30 µM.
